Results: patent US11213508B2, “Compositions comprising urolithins and uses thereof for the stimulation of insulin secretion” (Centre National de la Recherche Scientifique (CNRS), priority 2013, dated 2022)
“Also recorded” adds a separate entry of the source.

Key:
Type in all cases: cell-based
[1] = test system: INS-1 insulin-secreting β-cells; assay: Glucose (8.3 mmol·L^−1)-stimulated insulin secretion in INS-1 cells (HTRF insulin assay); conditions: for ability to amplify glucose-stimulated insulin secretion: blind screening, 2 and 20 μM; for % control response (glucose-stimulated insulin secretion): control = glucose alone; for degree of stimulation of insulin secretion: summary over the different insulin secretion conditions in INS-1 cells, 20 μmol·L^−1
Protocol: Cells were seeded in 24-well plates (4×10^5 cells per well) and were used for experiments after 5 days of culture.
(§1) Cells were incubated for 1 h (5% CO2, 37° C.) in KRB medium containing 8.3 mmol·L^−1 glucose (glucose-stimulated secretion) in the presence or absence of the compounds tested. At the end of the 1 h incubation period, the medium was sampled and stored at −20° C. until the insulin assay. Insulin concentration in cell supernatants was determined using the homogeneous time resolved fluorescence technology (HTRF), according to the manufacturer's instructions (HTRF insulin assay kit, Cisbio International, Bagnols-sur-Ceze, France). Briefly, two anti-insulin antibodies were used; one labelled with Eu^3+-Cryptate and one labelled with XL665 recognizing distinct epitopes. When these two fluorophores bind to insulin molecules, the two antibodies come into close proximity, allowing fluorescence resonance energy transfer (FRET) to occur between the Eu^3+-Cryptate and the XL665. This FRET increases proportionally with the insulin concentrations. All the experiments were performed at least in quadruplicate.
For the determination of insulin secretion, cells were incubated for 1 h (5% CO2, 37° C.) in KRB medium containing either 1.4 mmol·L^−1 glucose (low-glucose) or 8.3 mmol·L^−1 glucose (glucose-stimulated secretion) in the presence or absence of the compounds tested. At the end of the 1 h incubation period, mediums were sampled and stored at −20° C. until the insulin assay.

[2] = test system: INS-1 insulin-secreting β-cells; assay: Insulin secretion in INS-1 cells under low-glucose (1.4 mmol·L^−1) condition; conditions: 1.4 mmol·L^−1 glucose; maximal concentration tested 20
Protocol: The insulin-secreting cell line INS-1 (a gift from Professor C. B. Wollheim) was cultured in RPMI-1640, supplemented with 10% fetal calf serum (FCS), 100 U·mL^−1 penicillin, 100 μg·mL^−1 streptomycin, 2 mmol·L^−1 L-glutamine, 10 mmol·L^−1 HEPES, 1 mmol·L^−1 sodium pyruvate, and […] 2-mercaptoethanol, as previously described by Youl et al. (2010). Cells were seeded in 24-well plates (4×10^5 cells per well) and were used for experiments after 5 days of culture.
as §1, with “Before the treatment, RPMI medium was removed and the cells were washed twice with HEPES-balanced Krebs-Ringer bicarbonate buffer (KRB) containing (in mmol·L^−1): 123 NaCl, 5.4 KCl, 1.3 KH2PO4, 2.7 MgSO4, 2.9 CaCl2, 5 NaHCO3 and 20 HEPES, pH 7.5, with 2 g·L^−1 bovine serum albumin (KRB/BSA). Cells” for “Cells”
Material and methods were the same as described in example 1. For the determination of insulin secretion, cells were incubated for 1 h (5% CO2, 37° C.) in KRB medium containing either 1.4 mmol·L^−1 glucose (low-glucose) or 8.3 mmol·L^−1 glucose (glucose-stimulated secretion) in the presence or absence of the compounds tested. At the end of the 1 h incubation period, mediums were sampled and stored at −20° C. until the insulin assay. Insulin concentration in cell supernatants was determined as described in Example 1.

[3] = test system: INS-1 insulin-secreting β-cells; assay: INS-1 cell viability (MTT) in the presence of oxidative stress (H2O2); conditions: 20 μmol·L^−1 urolithin; 8.3 mmol·L^−1 glucose + H2O2
Protocol: For protection experiments, INS-1 cells were pre-incubated with the indicated concentrations of urolithins for one hour (5% CO2, 37° C.) in RPMI medium. After two washes in HEPES-balanced Krebs-Ringer bicarbonate buffer (123 mmol·L^−1 NaCl, 5.4 mmol·L^−1 KCl, 1.3 mmol·L^−1 KH2PO4, 2.7 mmol·L^−1 MgSO4, 2.9 mmol·L^−1 CaCl2, 5 mmol·L^−1 NaHCO3 and 20 mmol·L^−1 HEPES, pH 7.5) containing 2 g·L^−1 bovine serum albumin (KRB/BSA), INS-1 cells were incubated for one hour (5% CO2, 37° C.) in KRB/BSA containing urolithins at the indicated concentrations in the presence of 1.4 mmol·L^−1 glucose (basal condition) or 8.3 mmol·L^−1 glucose (stimulant condition). When used, H2O2 (50 gmol·L^−1) was added at the beginning of the one-hour incubation period. Control experiments were performed in the basal condition, in the absence of urolithins during the pre-incubation and incubation periods.
Cell viability was determined using the 3-(4,5-Dimethylthiazol-2-yl)-2,5-diphenyltetrazolium bromide (MTT) assay. At the end of the one-hour incubation period, cells were washed with KRB/BSA and KRB/BSA containing 5 mg/ml MTT was added to each well. Plates were then incubated for 3 h in the dark in a humidified atmosphere (5% CO2, 37° C.). Cells were washed with phosphate buffered saline (PBS) and precipitates were dissolved in 50 μl dimethyl sulfoxide (DMSO). Absorbance of the reduced intracellular formazan product was read at 492 nm on a microtiter plate reader (Tecan, Lyon, France). Experiments were performed in quadruplicate.

[4] = compound 2 μM, 8.3 mmol·L^−1 glucose
[5] = compound 20 μM, 8.3 mmol·L^−1 glucose

SMILES | ability to amplify glucose-stimulated insulin secretion ([1]; 8.3 mmol·L^−1 glucose) | % control response (glucose-stimulated insulin secretion) [1, 4] | % control response (glucose-stimulated insulin secretion) [1, 5] | degree of stimulation of insulin secretion [1] | stimulation of insulin secretion in low-glucose condition [2] | prevention of viability impairment induced by H2O2 (MTT) [3] | active concentration ([1]; glucose-stimulated secretion condition, active at this concentration only) | stimulation of insulin secretion at the maximal concentration tested ([1]; 8.3 mmol·L^−1 glucose, control 100% = glucose alone)
O=c1oc2cc(O)ccc2c2ccc(O)cc12 [Urolithin A, urolithin A] | able to amplify | 109.82% | 162.50% | about 160% | did not significantly stimulate insulin secretion; also recorded: does not stimulate insulin secretion | no effect | – | –
O=c1oc2cc(O)ccc2c2ccccc12 [Urolithin B, urolithin B] | able to amplify | 108.77% | 145.61% | 140% | induced some stimulation | partially active | 20 µM | –
O=c1oc2cc(O)ccc2c2cc(O)c(O)cc12 [Urolithin C, urolithin C] | able to amplify | 107.14% | 194.64% | 185-200% | induced some stimulation | totally prevent viability impairment | – | about 200%
O=c1oc2c(O)c(O)ccc2c2cc(O)c(O)cc12 [Urolithin D, urolithin D] | able to amplify | 88.79% | 158.62% | 135-155% | induced some stimulation | totally prevent viability impairment | – | –
